Entries after “also recorded” stand apart in the source; their conditions may differ.
Experiments:
[1] = target: T1, human P-glycoprotein transporter (Homo sapiens, UniProt P08183); experiment: P-gp substrate assessment, efflux ratio in MDCKII-MDR1 cells; format: in vitro ADME; settings: P-gp substrate classification, MDCKII-MDR1 cells
T1 construct: expressed in transfected cells; host or cells: MDCKII (canine kidney)
Experimental: (§1) Methods and Procedure: This study was conducted in compliance with previously described procedures to assure data integrity and adherence to GLP regulations. The experiments described herein were designed to evaluate the apparent permeability (Papp) of test compounds at pH 7.4. Additionally, the MDCKII-MDR1 cell line (Madin-Darby Canine Kidney clone II cell line heterologously expressing the human P-glycoprotein transporter) and mock cell line MDCKII were used to determine whether a compound acted as a P-gp substrate, in the absence and in the presence of the potent P-gp inhibitor. Test control items (digoxin, metoprolol, and atenolol) and control P-gp inhibitor (GF120918) stock solution were prepared in DMSO. Bidirectional assays (Apical to Basolateral [AB] and Basolateral to Apical [BA]) were run, in both the absence and presence of P-gp inhibitor GF120918 in MDCKII-MDR1 and mock cell line MDCKII, using as transport buffer HBSSH at a pH of 7.4 (n=3).
(§2) Compounds were tested at a single concentration (i.e. at 3 or 10 μM) at one time point (i.e. 60 min). Alternative concentrations or time-points may also be investigated. As reference compounds, digoxin (P-gp substrate), atenolol (low permeable compound) and metoprolol (high permeable compound) were included at a single concentration (e.g., 10 or 25 μM) and at single time point (e.g., 60 min). Digoxin transport was evaluated in two directions (apical-to-basolateral [AB] and basolateral-to-apical [BA]) in the absence and presence of GF120918 or in mock cells, MDCKII (n=3). Atenolol and metoprolol were only tested in the AB direction in absence of GF120918 or in mock cells, MDCKII (n=3). The integrity of the cell monolayer was evaluated after the permeability experiment using the paracellular permeability marker Lucifer yellow (LY) in the apical to basolateral direction in each well.
(§3) MDCKII or MDCKII-MDRI cells cultivated using DMEM (high glucose, GlutaMAX™ supplemented with pyruvate, 10% FBS HI and Pen/Strep) and seeded onto microporous PET (Polyethylene Terephthalate) membranes in HTS 96-Multiwell Insert plates at density of ˜175,000-245,000 cells/cm^2 (25000-35000 cells/well; 50 μL/well) in DMEM medium and incubated for 3-4 days at 37° C.-5% CO2. Medium was changed a day before the experiment.
(§4) Stock solutions of test items were prepared in DMSO at a concentration of 5 or 10 mM and stored at −20° C. until use. The potent P-gp inhibitor, GF120918 (stock solution 10 mM) and the reference controls digoxin, atenolol, metoprolol (stock solutions 3 or 10 mM) were prepared in DMSO and stored at −20° C. until use.
(§5) Donor working solutions of test items and reference controls will be prepared at a concentration of 10 or 25 μM, diluting the stock solutions in HBSSH. Receiver working solutions contained transport buffer only. All working solutions were prepared such that the final concentration of DMSO was <1% (v/v). A donor working solution containing LY was also prepared in transport buffer at 100 µM.
(§6) MDCKII and MDCKII-MDR1 cells were preincubated (37° C., 15 to 30 minutes) in receiver working solutions containing transport buffer on apical (A) and basolateral (B) sides. Following pre-incubation, test items and control items (digoxin) transport were measured in two directions (apical to basolateral [AB]) and basolateral to apical [BA]), and these directions were performed in triplicate sets of wells, in both the absence and presence of […] GF120918 or mock MDCKII cells. For [AB] directional transport, 75 μL of donor working solution was added to the A (apical) compartment and 235 μL of receiver working solution was added to the B (basolateral) compartment. For [BA] directional transport, 235 μL donor working solution with test items or reference controls was added to the B compartment and 75 μL receiver working solution was added to the A compartment. Transport of permeability reference controls, atenolol and metoprolol, were measured in one direction (apical to basolateral [AB]) (n=3). […]

[2] = target: T2, human P-glycoprotein (MDR1) (Homo sapiens, UniProt P08183); experiment: as above; format: in vitro ADME; settings: dog, MDCK-MDR1, pH 7.4; efflux ratio; P-gp substrate if ratio >2 and reduced by inhibitor; read-out: B/A ratio in MDCKII-MDR1 cells
T2 construct: expressed in transfected cells; host or cells: MDCKII (canine kidney)
T2 sequence (P08183 whole entry): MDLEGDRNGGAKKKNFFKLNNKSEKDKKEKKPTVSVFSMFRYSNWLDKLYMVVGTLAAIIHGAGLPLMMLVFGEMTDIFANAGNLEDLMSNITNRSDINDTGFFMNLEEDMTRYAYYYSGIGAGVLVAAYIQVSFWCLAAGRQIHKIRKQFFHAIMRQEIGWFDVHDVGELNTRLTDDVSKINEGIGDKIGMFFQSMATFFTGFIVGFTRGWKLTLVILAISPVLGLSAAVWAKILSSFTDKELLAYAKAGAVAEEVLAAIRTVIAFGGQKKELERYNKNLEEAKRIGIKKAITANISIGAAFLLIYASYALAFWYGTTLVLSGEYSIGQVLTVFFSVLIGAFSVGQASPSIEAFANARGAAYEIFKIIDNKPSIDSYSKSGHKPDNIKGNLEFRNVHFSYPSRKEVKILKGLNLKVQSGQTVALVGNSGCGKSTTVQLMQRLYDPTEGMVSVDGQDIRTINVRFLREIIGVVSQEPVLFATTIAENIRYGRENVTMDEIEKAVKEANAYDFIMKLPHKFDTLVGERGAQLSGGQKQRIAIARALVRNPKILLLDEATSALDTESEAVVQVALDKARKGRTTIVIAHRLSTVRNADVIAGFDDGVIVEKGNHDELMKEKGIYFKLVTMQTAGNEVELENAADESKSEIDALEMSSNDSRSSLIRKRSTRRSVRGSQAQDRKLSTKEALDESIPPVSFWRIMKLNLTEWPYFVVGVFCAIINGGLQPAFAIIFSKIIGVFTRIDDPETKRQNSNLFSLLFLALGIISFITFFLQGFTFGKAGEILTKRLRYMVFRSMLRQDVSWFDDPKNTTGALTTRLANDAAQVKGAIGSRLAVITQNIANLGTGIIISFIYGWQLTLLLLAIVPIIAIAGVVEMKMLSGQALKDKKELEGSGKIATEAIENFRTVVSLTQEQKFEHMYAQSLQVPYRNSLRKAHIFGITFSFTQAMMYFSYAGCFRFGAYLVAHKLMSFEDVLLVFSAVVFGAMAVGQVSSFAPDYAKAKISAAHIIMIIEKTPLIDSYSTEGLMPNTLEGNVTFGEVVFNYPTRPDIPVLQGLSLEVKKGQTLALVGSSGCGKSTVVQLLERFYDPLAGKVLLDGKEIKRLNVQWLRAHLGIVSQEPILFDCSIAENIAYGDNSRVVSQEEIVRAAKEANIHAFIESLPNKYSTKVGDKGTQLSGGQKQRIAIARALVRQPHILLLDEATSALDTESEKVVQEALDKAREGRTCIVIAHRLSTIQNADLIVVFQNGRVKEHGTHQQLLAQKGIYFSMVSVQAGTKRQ
Experimental: as §1, §2, §3, §4, §5, §6

[3] = target: T3, SERT (serotonin transporter) (Homo sapiens, UniProt P31645); experiment: SERT uptake scintillation proximity assay, inhibition of [3H]-serotonin uptake in hSERT-CHO cells; format: cell-based; settings: read-out: SERT uptake pIC50 (converted)
T3 construct: expressed in transfected cells; host or cells: CHO
T3 sequence (P31645 whole entry): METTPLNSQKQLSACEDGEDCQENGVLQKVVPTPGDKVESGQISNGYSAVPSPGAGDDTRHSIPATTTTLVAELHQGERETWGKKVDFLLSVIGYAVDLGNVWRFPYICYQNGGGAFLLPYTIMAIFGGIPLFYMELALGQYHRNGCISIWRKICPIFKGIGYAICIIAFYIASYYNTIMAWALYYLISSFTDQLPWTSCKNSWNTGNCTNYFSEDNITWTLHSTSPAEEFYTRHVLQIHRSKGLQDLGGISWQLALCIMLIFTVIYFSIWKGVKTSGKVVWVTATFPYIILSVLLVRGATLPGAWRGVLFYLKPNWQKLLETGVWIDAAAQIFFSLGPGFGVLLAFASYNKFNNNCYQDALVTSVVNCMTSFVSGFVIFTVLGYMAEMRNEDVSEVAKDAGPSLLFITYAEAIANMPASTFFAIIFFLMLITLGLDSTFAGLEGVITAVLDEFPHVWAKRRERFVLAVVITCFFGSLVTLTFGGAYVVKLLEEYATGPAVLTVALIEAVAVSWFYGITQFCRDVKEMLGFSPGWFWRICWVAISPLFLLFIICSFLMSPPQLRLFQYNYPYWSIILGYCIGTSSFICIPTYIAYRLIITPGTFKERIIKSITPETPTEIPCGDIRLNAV
Experimental: Overview: Eighty-eight compounds were tested in SERT (serotonin transporter) and DAT (dopamine transporter) uptake assays (completed as scintillation proximity assays, or SPAs, in a recombinant CHO cell line). Fifty-two compounds were tested in release assays for 5-HT and DA release in rat synaptosomes.
In addition, hSERT-CHO cells were detached using Versene and added at a density of 150,000 cells/mL to the SPA Mixture, which contains the following components in the Assay Buffer described above: 0.5 mg/mL SPA Imaging beads (RPNQ0001, PerkinElmer), 10 μM pargyline and 35 nM of [^3H]-serotonin (NET498, PerkinElmer). The SPA Mixture was added 20 μL/well to 384 well plates containing 0.1 μL/well of test compound in neat DMSO (11 points of 1:5 serial dilution, 0.5% DMSO final), 0.1 μL of DMSO (total uptake), or 0.1 μL of the standard inhibitor indatraline (1 μM, nonspecific uptake). Plates were sealed with a Top-seal A and read using a Microbeta counter (PerkinElmer) after 120 minutes of incubation at room temperature.
For both tests, the raw experimental data (cpm) were elaborated for the determination of pIC50/IC50 values as % inhibition of specific uptake. Concentration-response curves of MDMA, MDDMA, citalopram and GBR-12909 were used as internal standards in all experiments, and the signal window was monitored in each plate performing Z′ calculations, as described in Zhang et al., J. Biomol. Screen., 1999; 4: 67-73.

T1 sequence (P08183 whole entry): as the sequence (P08183 whole entry) above

Row | Compound | Substrate Classification [1] | efflux ratio at 60 min [2] | IC50 [3]
1 | Clc1ccc([C@]23CN[C@H](CO2)C3)cc1Cl (single isomer, unassigned) [516A] | pGP-NO | 0.73 | 0.0468 µM
2 | Clc1ccc([C@@]23CN[C@@H](CO2)C3)cc1Cl (single isomer, unassigned) [518A] | not determined to be a substrate for P-gp; also recorded: pGP-NO | 0.7 | 0.0813 µM
3 | Clc1ccc(C23CNC(CO2)C3)cc1Cl (centres unmarked) [522A, 1-(3,4-dichlorophenyl)-2-oxa-5-azabicyclo[2.2.1]heptane] | not determined to be a substrate for P-gp; also recorded: pGP-NO | 0.83 | 0.0562 µM
4 | CNC(C)Cc1ccc2c(c1)OCO2 (centres unmarked) [MDMA, reference compound] | not a P-gp substrate | 1.5 | –

From patent US12595269B2, “Morpholine-like monoamine releasers” (Solvonis Therapeutics Ireland Holdings Limited, priority 2022, dated 2026)
